Test results from patent US20070049518A1, “Novel method of treatment of inflammatory skin conditions” (priority 2005, published 2007).
pIC50: −log10 of the molar value.

Legend:
[1] = system: protease activity in skin wash samples from patients with acute AD; test: Zymographic analysis of skin wash samples; format: biochemical, human; details: 50 μM; gelatin zymogram gel; 6 samples acute AD
Method: A method has been developed to evaluate protease activity in skin washings. Skin washings from patients with acute eczema may be obtained by aspirating 0.5 ml sterile physiological saline over the skin surface using a sterile, disposable plastic Pasteur pipette The skin area (˜1 cm^2) is defined by a sterile open-ended plastic cylinder. Samples were transferred to 0.05 ml 0.55 M MOPS buffer pH 7.0, 55 mM calcium chloride and 0.2% Brij 35, mixed, centrifuged to remove debris and frozen at −70° C. pending analysis.
Zymographic analysis of the protease content of the samples may be done by mixing with 0.2 volume 0.2M Tris-HCl pH 6.8 containing 37.5% (v/v) glycerol and 2.5% sodium dodecylsulphate followed by electrophoresis through a gelatin zymogram gel (Invitrogen Corporation) according to the manufacturer's instructions. Gels were washed in 2.5% (w/v) Triton X-100 in 25 mM MOPS buffer pH 7 with or without compound 11 (50 μM) and developed overnight at 37° C. in 0.1M MOPS buffer pH 7 containing 5 mM calcium chloride with or without compound 11 (50 μM). Zones of clearing due to proteolytic activity may be identified by staining with Coomassie Brilliant Blue R followed by destaining in 40% (v/v) methanol/10% (v/v) acetic acid. […]

[2] = system: Cysteine protease in S. aureus 8325-4 culture supernatant; test: Cysteine protease activity in supernatant of S. aureus grown with compound; format: cell-based, Staphylococcus aureus
Method: Duplicate samples of brain heart infusion medium (5 ml; Becton Dickinson and Co.) containing 10% skimmed milk and 2% (v/v) DMSO vehicle±Compound 12 were inoculated with S. aureus 8325-4 (approximately 10^7 cells in tryptic soy broth) and incubated for 16 h at 37° C./220 rpm. Cultures were centrifuged to remove bacteria and the culture supernatants stored at −70° C. pending analysis of protease activity.
Enzyme activities were measured in mixtures containing 90 mM MOPS (sodium) buffer pH 7.0 (0.1 ml), 0.045% Brij 35, 2% (v/v) DMSO vehicle±Compound 12 and culture supernatant (4 μl). The concentration of compound used was the same as that which had been used to culture the assayed sample. Further additions to the reaction mixtures were as follows. Aureolysin assay: 4.5 mM calcium chloride, 9 μM E-64 (to inhibit cysteine protease activity) and 10 μM Mca-Pro-Leu-Gly-Leu-Dap(Dnp)-Ala-Arg-amide (Bachem); V8 protease assay: 10 μM Mca-Leu-Glu-Val-Asp-Gly-Trp-Lys(Dnp)-amide (Bachem); cysteine protease assay: 1.8 mM cysteine-HCl (pH-adjusted with NaOH), 9 mM EDTA and 0.1 mM Z-Phe-Arg-AMC hydrochloride (Bachem). The rate of product formation at 37° C. was monitored over 6 h taking readings at 15 min intervals using a POLARstar OPTIMA plate reader (BMG LABTECH Ltd) with 320 nm excitation/405 nm emission for aureolysin and V8 assays and 390 nm excitation/460 nm emission for the cysteine protease assay. Enzyme activities were determined from the linear rate of fluorescence increase and converted to percent inhibition by reference to vehicle control samples.

[3] = molecular target: T1, recombinant human kallikrein 5 (Homo sapiens, UniProt Q9Y337); test: Selectivity profile, kallikrein 5; format: biochemical; details: read-out: inhibition at 0.1 mM, Kallikrein 5
T1 construct: purchased R&D Systems Inc
Method: (§1) Inhibitory activity was tested in reaction mixtures (0.1 ml) containing 2% (v/v) DMSO vehicle±compound plus additions as follows. V8 protease: 90 mM MOPS (sodium) buffer pH 7.0, […] calcium chloride, 0.045% Brij 35, 10 μM Mca-Leu-Glu-Val-Asp-Gly-Trp-Lys(Dnp)-amide (Bachem) and V8 (BioCentrum Ltd; 30 ng). Staphopain A and B: 90 mM MOPS (sodium) buffer pH 7.0, 1.8 mM cysteine-HCl (pH-adjusted with NaOH), 0.045% Brij 35, 0.1 mM Z-Phe-Arg-AMC hydrochloride (Bachem) and staphopain A or B (BioCentrum Ltd; 30 ng). Human kallikrein 5: 0.1M sodium phosphate buffer pH 8.0, 0.045% Brij 35, 0.1 mM Boc-Val-Pro-Arg-AMC (Sigma) and recombinant human kallikrein 5 (R&D Systems Inc; 6 ng). Human kallikrein 7: 72 mM Tris-HCl pH 8.0, 0.033% Brij 35, 1.2 mM S-2586 (Chromogenix Instrumentation Laboratory SpA) and recombinant human kallikrein 7 (R&D Systems Inc; 0.6 μg) that had been thermolysin-activated according to the manufacturer's instructions. Human angiotensin-converting enzyme (ACE): 45 mM MES (sodium) buffer pH 6.5, 0.045% Brij 35, 10 μM Mca-[…]Dnp)-OH(R&D Systems Inc) and recombinant human ACE (R&D Systems Inc; 1.3 ng). Human cathepsin D: 0.1M sodium acetate buffer pH 3.5, 0.2M sodium chloride, 0.045% Brij 35, 10 μM Mca-Pro-Leu-Gly-Leu-Dap(Dnp)-Ala-Arg-amide (Bachem) and recombinant human cathepsin D (R&D Systems Inc; 8 ng) activated according to the manufacturer's instructions. […]

[4] = molecular target: T2, recombinant human kallikrein 7 (Homo sapiens, UniProt P49862); test: Selectivity profile, kallikrein 7; format: biochemical; details: read-out: inhibition at 0.1 mM, Kallikrein 7
T2 construct: purchased R&D Systems Inc
Method: as §1

aureolysin = aureolysin (Staphylococcus aureus, UniProt P81177); test: Inhibition of aureolysin-mediated pro-uPA activation; details: for Relative activity: Aureolysin 1 μg/ml, pH 5.6
aureolysin, sequence (P81177 209-509): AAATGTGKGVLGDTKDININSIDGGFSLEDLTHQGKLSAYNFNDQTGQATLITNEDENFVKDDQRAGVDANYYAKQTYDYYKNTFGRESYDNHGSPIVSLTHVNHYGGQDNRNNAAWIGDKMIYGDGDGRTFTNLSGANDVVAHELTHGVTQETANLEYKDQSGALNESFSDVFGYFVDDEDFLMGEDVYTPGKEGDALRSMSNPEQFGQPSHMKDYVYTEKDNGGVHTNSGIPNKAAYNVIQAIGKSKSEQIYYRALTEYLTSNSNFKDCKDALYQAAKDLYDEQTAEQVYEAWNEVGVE
Description: Under these conditions the extent of pro-uPA cleavage as assessed by uPA activity was directly proportional to the concentration of aureolysin in the assay.

T1 sequence (Q9Y337 23-293): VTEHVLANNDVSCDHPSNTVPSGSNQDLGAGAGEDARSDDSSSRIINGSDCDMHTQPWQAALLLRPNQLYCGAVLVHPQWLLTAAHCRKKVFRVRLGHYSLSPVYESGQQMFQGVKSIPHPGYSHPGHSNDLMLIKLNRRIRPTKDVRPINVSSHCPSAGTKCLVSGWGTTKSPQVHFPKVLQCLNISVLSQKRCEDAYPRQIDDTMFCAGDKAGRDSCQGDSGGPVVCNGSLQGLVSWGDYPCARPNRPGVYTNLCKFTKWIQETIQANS
T2 sequence (P49862 30-253): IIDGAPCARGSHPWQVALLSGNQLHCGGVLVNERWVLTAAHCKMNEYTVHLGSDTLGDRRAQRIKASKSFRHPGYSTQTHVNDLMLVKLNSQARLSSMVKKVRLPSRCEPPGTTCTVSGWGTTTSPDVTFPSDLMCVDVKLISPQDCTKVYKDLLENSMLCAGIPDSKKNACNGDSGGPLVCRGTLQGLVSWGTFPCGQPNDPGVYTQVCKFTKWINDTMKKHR

Compound | inhibition of protease activity in skin wash samples, zymography (in words) [1] | Inhibition (%) Cysteine protease ([2]; Compound 12 40 μM in culture and assay) | Inhibition (%) Cysteine protease ([2]; Compound 12 79 μM in culture and assay) | Inhibition (%) Cysteine protease ([2]; Compound 12 159 μM in culture and assay) | Inhibition (%) Cysteine protease ([2]; Compound 12 317 μM in culture and assay) | inhibition at 100 µM [3] | inhibition at 100 µM [4] | pIC50 (aureolysin) | Relative activity (aureolysin; Compound 12 25 μM) | Relative activity (aureolysin; Compound 12 317 μM)
CNC(=O)[C@@H](NC(=O)[C@@H](CC(=O)NO)CC(C)C)C(C)(C)C [Compound 11, (R)—N1-((S)-3,3-dimethyl-1-(methylamino)-1-oxobutan-2-yl)-N4-hydroxy-2-isobutylsuccinamide] | significant inhibition of protease activity | – | – | – | – | – | – | – | – | –
CNC(=O)[C@@H](NC(=O)[C@H](CC(=O)NO)CC(C)C)C(C)(C)C [Compound 12, (S)—N1-((S)-3,3-dimethyl-1-(methylamino)-1-oxobutan-2-yl)-N4-hydroxy-2-isobutylsuccinamide] | – | 27% | 53% | 78% | 87% | 0% | 0% | 5.62 | 37% | 8%
